# Test results taken from publication PMC1459859, “Display of a thermostable lipase on the surface of a solvent-resistant bacterium, Pseudomonas putida GM730, and its applications in whole-cell biocatalysis” (BMC Biotechnology, 2006).
# Tests used:
# [1] = target: T1, TliA (thermostable lipase), displayed as INPNC-TliA (Pseudomonas fluorescens, UniProt Q9ZG91); test: whole-cell lipase activity, spectrophotometric; assay type: cell-based; conditions: INPNC-TliA displayed on P. putida GM730/pJHC13 cells; PBS-washed; induced with 1 mM IPTG
# T1 sequence (Q9ZG91 1-476): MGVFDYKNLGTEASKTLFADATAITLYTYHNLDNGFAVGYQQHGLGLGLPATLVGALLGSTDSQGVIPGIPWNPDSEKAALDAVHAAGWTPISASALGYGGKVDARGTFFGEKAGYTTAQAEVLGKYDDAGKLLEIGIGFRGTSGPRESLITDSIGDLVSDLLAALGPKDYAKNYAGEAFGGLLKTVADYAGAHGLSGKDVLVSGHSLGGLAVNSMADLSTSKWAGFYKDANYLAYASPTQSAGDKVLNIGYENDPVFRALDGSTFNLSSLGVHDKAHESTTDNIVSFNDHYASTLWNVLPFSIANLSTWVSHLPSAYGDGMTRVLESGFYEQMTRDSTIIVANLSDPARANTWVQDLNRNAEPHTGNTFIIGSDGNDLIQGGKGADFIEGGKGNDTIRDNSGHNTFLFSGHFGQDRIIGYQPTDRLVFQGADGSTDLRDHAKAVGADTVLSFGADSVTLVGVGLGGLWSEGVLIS
# [2] = target: T1, TliA (thermostable lipase), displayed as INPNC-TliA; test: whole-cell chiral resolution, HPLC; assay type: cell-based; conditions: INPNC-TliA displayed on P. putida GM730/pJHC13 cells; 50 mM racemic substrate; two-phase PBS-isooctane; 25 °C; 72 h; R-selective
structure (smiles),measurement,setting,value
CCCCCCCCCCCCCCCC(=O)Oc1ccc([N+](=O)[O-])cc1 [p-nitrophenyl palmitate],"whole-cell lipase activity, spectrophotometric",[1],"whole-cell enzyme activities were measured with p-nitrophenyl palmitate (pNPP), which does not enter the cells"
CC(C(=O)Oc1ccc([N+](=O)[O-])cc1)c1ccccc1 (racemic) [4-nitrophenyl 2-phenylpropionate],"whole-cell chiral resolution, HPLC",[2],enantiomeric excesses of the surviving p-nitrophenyl 2-phenylpropionate and the product (R) 2-phenylpropionic acid
